In patent publication US7625895B2, “Diphenyl-dihydro-imidazopyridinones” (Hoffmann-Le Roche Inc., priority 2007, dated 2009) one finds IC50 data, which are given here for ten molecules.

Chain of interaction between p53 and MDM2 proteins (recombinant GST-tagged MDM2 / p53-peptide) (Q00987 whole entry): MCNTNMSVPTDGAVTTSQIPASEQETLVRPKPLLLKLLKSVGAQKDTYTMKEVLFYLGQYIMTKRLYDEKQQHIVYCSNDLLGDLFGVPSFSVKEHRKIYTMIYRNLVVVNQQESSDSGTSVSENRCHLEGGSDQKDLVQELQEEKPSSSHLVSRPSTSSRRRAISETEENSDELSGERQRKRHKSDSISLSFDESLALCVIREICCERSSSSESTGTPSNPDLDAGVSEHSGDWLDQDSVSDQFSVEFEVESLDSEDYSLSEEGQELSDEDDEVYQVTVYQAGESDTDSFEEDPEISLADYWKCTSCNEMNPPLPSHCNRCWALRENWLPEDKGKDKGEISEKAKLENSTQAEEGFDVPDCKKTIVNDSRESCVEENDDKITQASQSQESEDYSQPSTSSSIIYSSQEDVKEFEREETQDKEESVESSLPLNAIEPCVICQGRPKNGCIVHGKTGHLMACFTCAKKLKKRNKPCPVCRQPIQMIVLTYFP

The test addresses interaction between p53 and MDM2 proteins (recombinant GST-tagged MDM2 / p53-peptide) (Homo sapiens, UniProt Q00987). As to the kind of experiment: HTRF assay of inhibition of the p53-MDM2 interaction (GST-MDM2 binding to biotinylated p53 peptide). To be noted: 90 nM biotinylated p53 peptide, 160 ng/ml GST-MDM2, 37° C. 1 h. On the procedure: The ability of the compounds to inhibit the interaction between p53 and MDM2 proteins was measured by an HTRF (homogeneous time-resolved fluorescence) assay in which recombinant GST-tagged MDM2 binds to a peptide that resembles the MDM2-interacting region of p53 (Lane et al.). Binding of GST-MDM2 protein and p53-peptide (biotinylated on its N-terminal end) is registered by the FRET (fluorescence resonance energy transfer) between Europium (Eu)-labeled anti-GST antibody and streptavidin-conjugated Allophycocyanin (APC).
Test is performed in black flat-bottom 384-well plates (Costar) in a total volume of […] containing: 90 nM biotinylated peptide, 160 ng/ml GST-MDM2, 20 nM streptavidin-APC (PerkinElmerWallac), 2 nM Eu-labeled anti-GST-antibody (PerkinElmerWallac) 0.2% bovine serum albumin (BSA), 1 mM dithiothreitol (DTT) and 20 mM […] (TBS) buffer as follows: Add 10 μL of GST-MDM2 (640 ng/ml working solution) in reaction buffer to each well. Add 10 μL diluted compounds (1:5 dilution in reaction buffer) to each well mix by shaking. Add 20 μL biotinylated p53 peptide (180 nM working solution) in reaction buffer to each well and mix on shaker. Incubate at 37° C. for 1 h. Add 20 μL streptavidin-APC and Eu-anti-GST antibody mixture (6 nM Eu-anti-GST and 60 nM streptavidin-APC working solution) in TBS buffer with 0.2% BSA, shake at room temperature for 30 minutes and read using a TRF-capable plate reader at 665 and 615 nm (Victor 5, Perkin ElmerWallac). If not specified, the reagents were purchased from Sigma Chemical Co.
(In TR-FRET formats the signal depends on donor and acceptor labels being close together.)
For orientation: IC50 means the point on the concentration scale where inhibition reaches its midpoint. For `COC(=O)c1cccc(S(=O)(=O)N2c3ccc(C(=O)N4CCN(CCn5ccnc5)CC4)c(=O)n3[C@@H](c3ccc(Cl)cc3)[C@H]2c2ccc(Cl)cc2)c1` (racemic) [Example 66, rac-3-{cis-2,3-Bis-(4-chloro-phenyl)-6-[4-(2-imidazol-1-yl-ethyl)-piperazine-1-carbonyl]-5-oxo-2,3-dihydro-5H-imidazo[1,2-a]pyridine-1-sulfonyl}-benzoic acid methyl ester], the IC50 amounted to 670 nM. For the molecule `COC(=O)c1cccc(S(=O)(=O)N2c3ccc(C(=O)N4CCN(CC(=O)N5CCOCC5)CC4)c(=O)n3[C@@H](c3ccc(Cl)cc3)[C@H]2c2ccc(Cl)cc2)c1` (racemic) [Example 62, rac-3-{cis-2,3-Bis-(4-chloro-phenyl)-6-[4-(2-morpholin-4-yl-2-oxo-ethyl)-piperazine-1-carbonyl]-5-oxo-2,3-dihydro-5H-imidazo[1,2-a]pyridine-1-sulfonyl}-benzoic acid methyl ester], the IC50 was determined as 470 nM.

Turning to `COC(=O)c1cccc(S(=O)(=O)N2c3ccc(C(=O)N4CCN(C)CC4)c(=O)n3[C@@H](c3ccc(Cl)cc3)[C@H]2c2ccc(Cl)cc2)c1` (racemic) [Example 63, rac-3-[cis-2,3-Bis-(4-chloro-phenyl)-6-(4-methyl-piperazine-1-carbonyl)-5-oxo-2,3-dihydro-5H-imidazo[1,2-a]pyridine-1-sulfonyl]-benzoic acid methyl ester], the IC50 was determined as 460 nM. In the case of `N#Cc1cccc(S(=O)(=O)N2c3ccc(C(=O)N4CCOCC4)c(=O)n3[C@@H](c3ccc(Cl)cc3)[C@H]2c2ccc(Cl)cc2)c1` (single isomer, unassigned) [Example 91, 3-[2R*,3S*-bis-(4-chloro-phenyl)-6-(morpholine-4-carbonyl)-5-oxo-2,3-dihydro-5H-imidazo[1,2-a]pyridine-1-sulfonyl]-benzonitrile] it was 1600 nM. In the case of `N#Cc1cccc(S(=O)(=O)N2c3ccc(C(=O)N4CCOCC4)c(=O)n3[C@H](c3ccc(Cl)cc3)[C@@H]2c2ccc(Cl)cc2)c1` (single isomer, unassigned) [Example 92, 3-[2R*,3S*-bis-(4-chloro-phenyl)-6-morpholine-4-carbonyl)-5-oxo-2,3-dihydro-5H-imidazo[1,2-a]pyridine-1-sulfonyl]-benzonitrile] it was 690 nM.

For `O=C(O)c1cccc(S(=O)(=O)N2c3cccc(=O)n3[C@@H](c3ccc(Cl)cc3)[C@H]2c2ccc(Cl)cc2)c1` (racemic) [Example 82, rac-3-[cis-2,3-Bis-(4-chloro-phenyl)-5-oxo-2,3-dihydro-5H-imidazo[1,2-a]pyridine-1-sulfonyl]-benzoic acid], the IC50 turned out to be 770 nM. With `N#Cc1cc(S(=O)(=O)N2c3cccc(=O)n3[C@@H](c3ccc(Cl)cc3)[C@H]2c2ccc(Cl)cc2)ccc1F` (single isomer, unassigned) [Example 84, 5-[(2R*,3S*)-2,3-Bis-(4-chloro-phenyl)-5-oxo-2,3-dihydro-5H-imidazo[1,2-a]pyridine-1-sulfonyl]-2-fluoro-benzonitrile] the figure was 500 nM; with `O=C(CN1CCN(C(=O)c2ccc3n(c2=O)[C@@H](c2ccc(Cl)cc2)[C@@H](c2ccc(Cl)cc2)N3S(=O)(=O)c2ccccc2F)CC1)N1CCOCC1` (racemic) [Example 51, rac-cis-2,3-Bis-(4-chloro-phenyl)-1-(2-fluoro-benzenesulfonyl)-6-[4-(2-morpholin-4-yl-2-oxo-ethyl)-piperazine-1-carbonyl]-2,3-dihydro-1H-imidazo[1,2-a]pyridin-5-one], 710 nM. In the case of `N#Cc1cc(S(=O)(=O)N2c3cccc(=O)n3[C@@H](c3ccc(Cl)cc3)[C@H]2c2ccc(Cl)cc2)ccc1F` (single isomer, unassigned) [Example 85, 5-[(2R*,3S*)-2,3-Bis-(4-chloro-phenyl)-5-oxo-2,3-dihydro-5H-imidazo[1,2-a]pyridine-1-sulfonyl]-2-fluoro-benzonitrile] it was 220 nM; in that of `O=c1cccc2n1[C@@H](c1ccc(Cl)cc1)[C@@H](c1ccc(Cl)cc1)N2S(=O)(=O)c1ccsc1` (racemic) [Example 10, rac-cis-2,3-Bis-(4-chloro-phenyl)-1-(thiophene-3-sulfonyl)-2,3-dihydro-1H-imidazo[1,2-a]pyridin-5-one], 710 nM.
